15 compounds from patent publication US20210070748A1, “INHIBITORS OF BRUTONS TYROSINE KINASE” (Pharmacyclics LLC, priority 2015, published 2021) can be followed below.

Usually IC50 stands for the midpoint of a concentration-inhibition curve.

Holding throughout (assay type): biochemical
One test addresses T1, TEC (Homo sapiens, UniProt P42680).
T1 sequence (P42680 1-631): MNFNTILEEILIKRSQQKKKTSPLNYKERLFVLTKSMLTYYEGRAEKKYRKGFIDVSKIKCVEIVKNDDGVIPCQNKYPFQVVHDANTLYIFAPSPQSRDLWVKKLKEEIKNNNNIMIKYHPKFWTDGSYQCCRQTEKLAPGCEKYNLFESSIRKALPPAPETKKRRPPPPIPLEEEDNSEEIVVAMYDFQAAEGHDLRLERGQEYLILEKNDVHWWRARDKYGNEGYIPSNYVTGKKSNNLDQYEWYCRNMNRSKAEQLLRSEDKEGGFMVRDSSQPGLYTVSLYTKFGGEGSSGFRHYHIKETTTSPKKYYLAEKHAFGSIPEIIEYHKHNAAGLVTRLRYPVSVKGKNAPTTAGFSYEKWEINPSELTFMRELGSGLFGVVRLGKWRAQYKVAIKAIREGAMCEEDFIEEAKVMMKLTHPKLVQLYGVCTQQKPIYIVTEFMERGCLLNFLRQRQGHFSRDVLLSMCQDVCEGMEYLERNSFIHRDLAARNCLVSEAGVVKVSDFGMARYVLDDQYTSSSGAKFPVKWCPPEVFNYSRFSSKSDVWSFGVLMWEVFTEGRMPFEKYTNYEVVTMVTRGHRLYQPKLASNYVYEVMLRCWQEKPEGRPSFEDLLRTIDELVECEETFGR
The test is described as follows: Inhibition of a panel of kinases, in vitro HotSpot kinase assay: TEC. Particulars: D-compounds panel data; 1 μM ATP. Here is the method: (§1) The degree of inhibition of a panel of kinases is determined using the in vitro HotSpot kinase assay (purified enzymes, ^33P-ATP, an appropriate substrate and 1 μM ATP).

Another test has as its target T2, JAK3 (Homo sapiens, UniProt P52333).
T2 sequence (P52333 1-1124): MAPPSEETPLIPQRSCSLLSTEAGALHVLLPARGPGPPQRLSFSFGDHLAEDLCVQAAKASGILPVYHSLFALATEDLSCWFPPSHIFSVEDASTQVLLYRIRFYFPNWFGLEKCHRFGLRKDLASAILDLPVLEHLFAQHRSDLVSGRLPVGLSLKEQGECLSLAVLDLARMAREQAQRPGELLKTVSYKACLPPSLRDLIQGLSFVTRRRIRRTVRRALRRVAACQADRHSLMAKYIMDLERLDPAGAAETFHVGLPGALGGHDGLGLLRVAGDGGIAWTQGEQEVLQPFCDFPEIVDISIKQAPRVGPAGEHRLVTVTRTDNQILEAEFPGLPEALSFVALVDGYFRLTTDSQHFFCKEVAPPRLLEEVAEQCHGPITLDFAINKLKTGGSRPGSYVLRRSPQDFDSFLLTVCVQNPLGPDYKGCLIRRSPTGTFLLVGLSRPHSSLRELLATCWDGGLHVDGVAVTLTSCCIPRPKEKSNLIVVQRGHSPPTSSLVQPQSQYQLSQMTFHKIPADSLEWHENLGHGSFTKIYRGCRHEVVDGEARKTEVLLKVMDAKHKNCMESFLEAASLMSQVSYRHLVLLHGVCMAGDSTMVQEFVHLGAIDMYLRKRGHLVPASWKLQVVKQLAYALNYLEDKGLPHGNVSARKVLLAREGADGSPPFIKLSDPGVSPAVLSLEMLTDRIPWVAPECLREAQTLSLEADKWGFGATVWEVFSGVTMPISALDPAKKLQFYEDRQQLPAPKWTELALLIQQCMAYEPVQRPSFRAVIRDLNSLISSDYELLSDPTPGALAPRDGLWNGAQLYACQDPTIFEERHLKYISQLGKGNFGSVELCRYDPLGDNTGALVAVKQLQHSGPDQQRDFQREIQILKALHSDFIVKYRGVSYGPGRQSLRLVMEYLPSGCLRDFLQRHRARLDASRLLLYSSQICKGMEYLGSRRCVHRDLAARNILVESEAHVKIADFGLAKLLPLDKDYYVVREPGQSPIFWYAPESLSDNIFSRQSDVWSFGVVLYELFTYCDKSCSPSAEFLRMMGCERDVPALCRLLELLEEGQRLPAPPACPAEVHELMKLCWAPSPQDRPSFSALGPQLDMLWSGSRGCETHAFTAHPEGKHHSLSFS
As to the kind of experiment: Inhibition of a panel of kinases, in vitro HotSpot kinase assay: JAK3. Particulars: D-compounds panel data; 1 μM ATP; read-out: IC50 JAK3.

The target of a further test is SRC (Homo sapiens, UniProt P12931). The test is described as follows: Inhibition of a panel of kinases, in vitro HotSpot kinase assay: SRC. Particulars: D-compounds panel data; 1 μM ATP. As to the method:
as §1

Each structure is given as a SMILES string.

Chain of SRC (P12931 whole entry): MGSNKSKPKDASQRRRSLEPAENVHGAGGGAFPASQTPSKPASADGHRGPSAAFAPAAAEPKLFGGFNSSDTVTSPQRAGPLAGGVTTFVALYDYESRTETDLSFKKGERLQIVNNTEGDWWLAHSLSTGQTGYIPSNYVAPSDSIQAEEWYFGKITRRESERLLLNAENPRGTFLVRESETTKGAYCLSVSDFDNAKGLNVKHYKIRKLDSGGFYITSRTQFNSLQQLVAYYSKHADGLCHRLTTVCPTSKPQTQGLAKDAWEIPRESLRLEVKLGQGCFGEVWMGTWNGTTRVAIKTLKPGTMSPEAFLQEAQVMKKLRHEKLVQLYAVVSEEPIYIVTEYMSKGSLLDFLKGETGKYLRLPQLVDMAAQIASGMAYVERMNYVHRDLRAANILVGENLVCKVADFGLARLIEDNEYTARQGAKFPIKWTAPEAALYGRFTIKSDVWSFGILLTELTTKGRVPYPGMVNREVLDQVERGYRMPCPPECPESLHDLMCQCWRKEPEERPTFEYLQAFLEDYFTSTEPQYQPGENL

Regarding `C[C@@H]1[C@H](NC(=O)c2ccc(C3CC3)cc2)CCCN1c1cnc(C(N)=O)c(Nc2ccc(OC3C[C@H]4CC[C@@H](C3)N4C)cc2)n1` (stereo partly drawn) [Example D-106, 5-[(2R,3R)-3-(4-cyclopropylbenzamido)-2-methylpiperidin-1-yl]-3-[(4-{[(1R,5S)-8-methyl-8-azabicyclo[3.2.1]octan-3-yl]oxy}phenyl)amino]pyrazine-2-carboxamide], the IC50 against TEC is ≤ 0.01 µM; at JAK3, 0.1 to 1 µM; at SRC, 0.01 to 0.1 µM.

Turning to `C[C@@H]1[C@H](NC(=O)N(C)C)CCCN1c1cnc(C(N)=O)c(Nc2cc(CN3CCOCC3)ns2)n1` [Example D-118, 5-[(2R,3R)-3-[(dimethylcarbamoyl)amino]-2-methylpiperidin-1-yl]-3-{[3-(morpholin-4-ylmethyl)-1,2-thiazol-5-yl]amino}pyrazine-2-carboxamide], the values for the IC50 on TEC, on JAK3 and at SRC were 0.1 to 1 µM, 1 to 10 µM and 0.1 to 1 µM, respectively.

As for `C[C@@H]1[C@H](NC(=O)c2ccc(C3CC3)cc2F)CCCN1c1cnc(C(N)=O)c(Nc2ccc3ncccc3c2)n1` [Example D-114, 5-[(2R,3R)-3-(4-cyclopropyl-2-fluorobenzamido)-2-methylpiperidin-1-yl]-3-[(quinolin-6-yl)amino]pyrazine-2-carboxamide], the IC50 on TEC was 0.01 to 0.1 µM; at JAK3, > 10 µM; on SRC, 0.1 to 1 µM.

Regarding `C[C@@H]1[C@H](n2ccc3cc(C4CC4)ccc3c2=O)CCCN1c1cnc(C(N)=O)c(Nc2ccc(N3CCN(C)CC3)cc2)n1` [Example D-6, 5-[(2R,3R)-3-(6-cyclopropyl-1-oxo-1,2-dihydroisoquinolin-2-yl)-2-methylpiperidin-1-yl]-3-{[4-(4-methylpiperazin-1-yl)phenyl]amino}pyrazine-2-carboxamide], the IC50 against TEC lay within 0.01 to 0.1 µM; on JAK3 it was 1 to 10 µM; at SRC, 0.01 to 0.1 µM.

As for `C[C@@H]1[C@H](NC(=O)c2ccc(C3CC3)cc2F)CCCN1c1cnc(C(N)=O)c(Nc2ccc(S(C)(=O)=O)cc2)n1` [Example D-133, 5-[(2R,3R)-3-(4-cyclopropyl-2-fluorobenzamido)-2-methylpiperidin-1-yl]-3-[(4-methanesulfonylphenyl)amino]pyrazine-2-carboxamide], the IC50 on TEC lay in the range of 0.1 to 1 µM; on JAK3, 1 to 10 µM; on SRC it was 0.1 to 1 µM.

Turning to `C[C@@H]1[C@H](NC(=O)N(C)C)CCCN1c1cnc(C(N)=O)c(Nc2ccc(N3CCN(C)CC3)cc2)n1` [Example D-111, 5-[(2R,3R)-3-[(dimethylcarbamoyl)amino]-2-methylpiperidin-1-yl]-3-{[4-(4-methylpiperazin-1-yl)phenyl]amino}pyrazine-2-carboxamide], the IC50 against TEC was in the range of 0.1 to 1 µM; on JAK3 it was 0.1 to 1 µM; at SRC it was 0.01 to 0.1 µM.

With `C[C@@H]1[C@H](NC(=O)c2ccc(C3CC3)cc2F)CCCN1c1cnc(C(N)=O)c(Nc2cc(CN(C)C)ns2)n1` [Example D-122, 5-[(2R,3R)-3-(4-cyclopropyl-2-fluorobenzamido)-2-methylpiperidin-1-yl]-3-({3-[(dimethylamino)methyl]-1,2-thiazol-5-yl}amino)pyrazine-2-carboxamide], the IC50 was 0.01 to 0.1 µM on TEC, 1 to 10 µM on JAK3 and 0.01 to 0.1 µM against SRC.

On to `C[C@@H]1[C@H](NC(=O)c2ccc(C3CC3)cc2F)CCCN1c1cnc(C(N)=O)c(Nc2ccc(N3CCN(C4CCCC4)CC3)cc2)n1` [Example D-5, 3-{[4-(4-cyclopentylpiperazin-1-yl)phenyl]amino}-5-[(2R,3R)-3-(4-cyclopropyl-2-fluorobenzamido)-2-methylpiperidin-1-yl]pyrazine-2-carboxamide], for which the IC50 against TEC fell in the range of 0.01 to 0.1 µM; at JAK3, 0.1 to 1 µM; on SRC it was 0.01 to 0.1 µM.

`C[C@@H]1CC[C@H](NC(=O)c2ccc(C3CC3)cc2)CN1c1cnc(C(N)=O)c(Nc2cnn(C)c2)n1` [Example D-145, 5-[(2R,5S)-5-(4-cyclopropylbenzamido)-2-methylpiperidin-1-yl]-3-[(1-methyl-1H-pyrazol-4-yl)amino]pyrazine-2-carboxamide]: the IC50 against TEC was 1 to 10 µM; on JAK3 it was > 10 µM; against SRC it was 1 to 10 µM.

In the case of `C[C@@H]1[C@H](NC(=O)c2ccc(C3CC3)cc2)CCCN1c1cnc(C(N)=O)c(Nc2ccc(N3CCN(C)CC3)cc2F)n1` [Example D-103, 5-[(2R,3R)-3-(4-cyclopropylbenzamido)-2-methylpiperidin-1-yl]-3-{[2-fluoro-4-(4-methylpiperazin-1-yl)phenyl]amino}pyrazine-2-carboxamide], the IC50 was 0.1 to 1 µM on TEC, > 10 µM at JAK3 and 1 to 10 µM against SRC.

Consider `C[C@@H]1[C@H](NC(=O)c2ccc(C3CC3)cc2F)CCCN1c1cnc(C(N)=O)c(Nc2ccc(S(=O)(=O)N3CCN(C)CC3)cc2)n1` [Example D-130, 5-[(2R,3R)-3-(4-cyclopropyl-2-fluorobenzamido)-2-methylpiperidin-1-yl]-3-({4-[(4-methylpiperazin-1-yl)sulfonyl]phenyl}amino)pyrazine-2-carboxamide], for which the IC50 was 0.1 to 1 µM on TEC, > 10 µM on JAK3 and 0.1 to 1 µM against SRC.

`C[C@@H]1[C@H](NC(=O)c2ccc(C3CC3)cc2)CCCN1c1cnc(C(N)=O)c(Nc2ccc(N3CCN(C)CC3)c(F)c2)n1` [Example D-146, 5-[(2R,3R)-3-(4-cyclopropylbenzamido)-2-methylpiperidin-1-yl]-3-{[3-fluoro-4-(4-methylpiperazin-1-yl)phenyl]amino}pyrazine-2-carboxamide]: the IC50 lay in the range of 0.01 to 0.1 µM against TEC, 1 to 10 µM at JAK3 and 0.01 to 0.1 µM against SRC.

For `Cc1cc(Nc2nc(N3CCC[C@@H](n4ccc5cc(C6CC6)ccc5c4=O)C3)cnc2C(N)=O)sn1` [Example D-166, 5-[(3R)-3-(6-cyclopropyl-1-oxo-1,2-dihydroisoquinolin-2-yl)piperidin-1-yl]-3-[(3-methyl-1,2-thiazol-5-yl)amino]pyrazine-2-carboxamide], the IC50 against TEC, at JAK3 and against SRC was > 10 µM each time.

As to `C[C@@H]1[C@H](NC(=O)N(C)C)CCCN1c1cnc(C(N)=O)c(Nc2ccc(OC3CCN(C4CCCC4)CC3)cc2)n1` [Example D-102, 3-({4-[(1-cyclopentylpiperidin-4-yl)oxy]phenyl}amino)-5-[(2R,3R)-3-[(dimethylcarbamoyl)amino]-2-methylpiperidin-1-yl]pyrazine-2-carboxamide], the IC50 fell in the range of 0.01 to 0.1 µM on TEC, 0.1 to 1 µM on JAK3 and 0.01 to 0.1 µM on SRC.

For `Cc1cc(Nc2nc(N3CCCC(c4ncc(-c5ccccc5)[nH]4)C3)cnc2C(N)=O)sn1` [Example D-164, 3-[(3-methyl-1,2-thiazol-5-yl)amino]-5-[3-(4-phenyl-3H-imidazol-2-yl)piperidin-1-yl]pyrazine-2-carboxamide], the IC50 against TEC, at JAK3 and against SRC was 0.1 to 1 µM throughout.
